# Measured values: patent US5534508A, “Cephem compounds and antimicrobial agents” (Katayama Seiyakusyo Co., Ltd., priority 1993, dated 1996)
# Legend:
# Assay type in all cases: cell-based
# S. aureus 209p JC-1 = assay: MIC against standard strains (Table 1), S. aureus 209p JC-1; settings: Staphylococcus aureus, Muller-Hinton agar, overnight 37° C., read-out: MIC (minimum growth inhibitory concentration)
# Procedure: (§1) The minimum growth inhibitory concentration (MIC, μg/ml) of the compounds for each of the 25 standard laboratory strains (standard strains) shown in Table 1 was determined in accordance with the standard method of the Japan Chemotherapical Society (Chemotherapy, 29, 76-79 (1981) under "Re-revision of the measuring methods of minimum growth inhibitory concentration (MIC)").
# (§2) That is, by using each test strain cultured overnight at 37° C. in a Muller-Hinton broth, there was prepared a bacterial solution with a cell density of 1×10^6 CFU/ml in the same broth. The bacterial solution was inoculated into the Muller-Hinton agar media each containing respectively one test agent (i.e., compound) and, after overnight incubation at 37° C., the minimum concentration that inhibited growth of the bacteria was determined and expressed as MIC.
# (§3) Staphylococcus aureus 167 and Staphylococcus aureus 195 used in the test were MRSA. CTM (cefotiam) and FMOX (flomoxef) were used as the control agents.
# S. aureus Smith = assay: MIC against standard strains (Table 1), S. aureus Smith; settings: Staphylococcus aureus, Muller-Hinton agar, overnight 37° C., read-out: MIC (minimum growth inhibitory concentration)
# Procedure: as §1, §2, §3
# S. aureus 167 = assay: MIC against standard strains (Table 1), S. aureus 167 (MRSA); settings: Staphylococcus aureus, Muller-Hinton agar, overnight 37° C., read-out: MIC (minimum growth inhibitory concentration)
# Procedure: as §1, §2, §3
# S. aureus 195 = assay: MIC against standard strains (Table 1), S. aureus 195 (MRSA); settings: Staphylococcus aureus, Muller-Hinton agar, overnight 37° C., read-out: MIC (minimum growth inhibitory concentration)
# Procedure: as §1, §2, §3
# S. epidemidis IAM 1296 = assay: MIC against standard strains (Table 1), S. epidemidis IAM 1296; settings: Muller-Hinton agar, overnight 37° C., read-out: MIC (minimum growth inhibitory concentration)
# Procedure: as §1, §2, §3
# M. luteus ATCC 9341 = assay: MIC against standard strains (Table 1), M. luteus ATCC 9341; settings: Micrococcus luteus, ATCC9341, Muller-Hinton agar, overnight 37° C., read-out: MIC (minimum growth inhibitory concentration)
# Procedure: as §1, §2, §3
# B. subtilis ATCC 6633 = assay: MIC against standard strains (Table 1), B. subtilis ATCC 6633; settings: Bacillus subtilis, ATCC6633, Muller-Hinton agar, overnight 37° C., read-out: MIC (minimum growth inhibitory concentration)
# Procedure: as §1, §2, §3
# E. coli JC-2 = assay: MIC against standard strains (Table 1), E. coli JC-2; settings: Escherichia coli, JC2, Muller-Hinton agar, overnight 37° C., read-out: MIC (minimum growth inhibitory concentration)
# Procedure: as §1, §2, §3
# E. coli CSH2(RK1) = assay: MIC against standard strains (Table 1), E. coli CSH2(RK1); settings: Escherichia coli, read-out: MIC (minimum growth inhibitory concentration)
# Procedure: as §1, §2, §3
# E. coli CSH2(RE45) = assay: MIC against standard strains (Table 1), E. coli CSH2(RE45); settings: Escherichia coli, read-out: MIC (minimum growth inhibitory concentration)
# Procedure: as §1, §2, §3
# K. pneuminiae IFO 3317 = assay: MIC against standard strains (Table 1), K. pneuminiae IFO 3317; settings: Muller-Hinton agar, overnight 37° C., read-out: MIC (minimum growth inhibitory concentration)
# Procedure: as §1, §2, §3
# K. pneuminiae No. 42 = assay: MIC against standard strains (Table 1), K. pneuminiae No. 42; settings: Muller-Hinton agar, overnight 37° C., read-out: MIC (minimum growth inhibitory concentration)
# Procedure: as §1, §2, §3
# P. mirabilis IFO 3849 = assay: MIC against standard strains (Table 1), P. mirabilis IFO 3849; settings: Proteus mirabilis, IFO3849, Muller-Hinton agar, overnight 37° C., read-out: MIC (minimum growth inhibitory concentration)
# Procedure: as §1, §2, §3
# P. vulugaris OX-19 = assay: MIC against standard strains (Table 1), P. vulugaris OX-19; settings: Muller-Hinton agar, overnight 37° C., read-out: MIC (minimum growth inhibitory concentration)
# Procedure: as §1, §2, §3
# M. morganii IFO 3848 = assay: MIC against standard strains (Table 1), M. morganii IFO 3848; settings: Morganella morganii, IFO3848, Muller-Hinton agar, overnight 37° C., read-out: MIC (minimum growth inhibitory concentration)
# Procedure: as §1, §2, §3
# S. marcescens IAM 1184 = assay: MIC against standard strains (Table 1), S. marcescens IAM 1184; settings: Serratia marcescens, IAM1184, Muller-Hinton agar, overnight 37° C., read-out: MIC (minimum growth inhibitory concentration)
# Procedure: as §1, §2, §3
# S. marcescens No. 16-2 = assay: MIC against standard strains (Table 1), S. marcescens No. 16-2; settings: Serratia marcescens, NO.162, Muller-Hinton agar, overnight 37° C., read-out: MIC (minimum growth inhibitory concentration)
# Procedure: as §1, §2, §3
# E. cloacae ATCC 13407 = assay: MIC against standard strains (Table 1), E. cloacae ATCC 13407; settings: Enterobacter cloacae, ATCC13407, Muller-Hinton agar, overnight 37° C., read-out: MIC (minimum growth inhibitory concentration)
# Procedure: as §1, §2, §3
# E. cloacae Nek39 = assay: MIC against standard strains (Table 1), E. cloacae Nek39; settings: Enterobacter cloacae, Muller-Hinton agar, overnight 37° C., read-out: MIC (minimum growth inhibitory concentration)
# Procedure: as §1, §2, §3
# C. freundii ATCC 8090 = assay: MIC against standard strains (Table 1), C. freundii ATCC 8090; settings: Citrobacter freundii, ATCC8090, Muller-Hinton agar, overnight 37° C., read-out: MIC (minimum growth inhibitory concentration)
# Procedure: as §1, §2, §3
# P. aeruginosa NCTC 10490 = assay: MIC against standard strains (Table 1), P. aeruginosa NCTC 10490; settings: Pseudomonas aeruginosa, NCTC10490, Muller-Hinton agar, overnight 37° C., read-out: MIC (minimum growth inhibitory concentration)
# Procedure: as §1, §2, §3
# P. aeruginosa AKR17 = assay: MIC against standard strains (Table 1), P. aeruginosa AKR17; settings: Pseudomonas aeruginosa, Muller-Hinton agar, overnight 37° C., read-out: MIC (minimum growth inhibitory concentration)
# Procedure: as §1, §2, §3
# P. cepacia CN 9113 = assay: MIC against standard strains (Table 1), P. cepacia CN 9113; settings: Burkholderia cepacia, CN9113, Muller-Hinton agar, overnight 37° C., read-out: MIC (minimum growth inhibitory concentration)
# Procedure: as §1, §2, §3
# A. faecalis ATCC 3750 = assay: MIC against standard strains (Table 1), A. faecalis ATCC 3750; settings: Alcaligenes faecalis, ATCC3750, Muller-Hinton agar, overnight 37° C., read-out: MIC (minimum growth inhibitory concentration)
# Procedure: as §1, §2, §3
# A. calcoaceticos T59 = assay: MIC against standard strains (Table 1), A. calcoaceticos T59; settings: Muller-Hinton agar, overnight 37° C., read-out: MIC (minimum growth inhibitory concentration)
# Procedure: as §1, §2, §3
# clinically isolated MRSA = assay: Antibacterial potency against clinically isolated MRSA (47 strains); settings: Staphylococcus aureus
# Procedure: A test on the antibacterial potency against clinically isolated MRSA was conducted in the following way.
# That is, using 47 strains of clinically isolated MRSA, MIC was determined for each of the test strains in accordance with the standard method of the Japan Chemotherapical Society as in Test Example 1, and the minimum growth inhibitory concentration which inhibited growth of 50% of the strains tested was expressed as MIC50 (μg/ml), and the minimum growth inhibitory concentration which inhibited growth of 90% of the strains tested was expressed as MIC90 (μg/ml).
# In this test, FMOX was used as the control agent.
Structure (SMILES),MIC (S. aureus 209p JC-1) [µg/mL],MIC (S. aureus Smith) [µg/mL],MIC (S. aureus 167) [µg/mL],MIC (S. aureus 195) [µg/mL],MIC (S. epidemidis IAM 1296) [µg/mL],MIC (M. luteus ATCC 9341) [µg/mL],MIC (B. subtilis ATCC 6633) [µg/mL],MIC (E. coli JC-2) [µg/mL],MIC (E. coli CSH2(RK1)) [µg/mL],MIC (E. coli CSH2(RE45)) [µg/mL],MIC (K. pneuminiae IFO 3317) [µg/mL],MIC (K. pneuminiae No. 42) [µg/mL],MIC (P. mirabilis IFO 3849) [µg/mL],MIC (P. vulugaris OX-19) [µg/mL],MIC (M. morganii IFO 3848) [µg/mL],MIC (S. marcescens IAM 1184) [µg/mL],MIC (S. marcescens No. 16-2) [µg/mL],MIC (E. cloacae ATCC 13407) [µg/mL],MIC (E. cloacae Nek39) [µg/mL],MIC (C. freundii ATCC 8090) [µg/mL],further results
"CO/N=C(\C(=O)N[C@@H]1C(=O)N2C(C(=O)[O-])=C(/C=C/C[n+]3cccc(NC(N)=O)c3)CS[C@H]12)c1csc(N)n1 [Compound 6, 7β-[2-(2-aminothiazol-4-yl)-2-syn-methoxyiminoacetamido]-3-[(E)-3-(3-ureidopyridinio]-1-propenyl]-3-cephem-4-carboxylate]",0.39,0.39,50,12.5,0.2,0.025,0.2,0.025,0.025,0.1,0.025,0.1,0.025,0.025,0.025,0.025,0.78,0.2,3.13,0.025,MIC (P. aeruginosa NCTC 10490): 0.39 µg/mL; MIC (P. aeruginosa AKR17): > 100 µg/mL; MIC (P. cepacia CN 9113): 50 µg/mL; MIC (A. faecalis ATCC 3750): 0.39 µg/mL; MIC (A. calcoaceticos T59): 6.25 µg/mL; MIC50 (clinically isolated MRSA; concentration inhibiting growth of 50% of 47 clinically isolated MRSA strains): 13.8 µg/mL; MIC90 (clinically isolated MRSA; concentration inhibiting growth of 90% of 47 clinically isolated MRSA strains): 67 µg/mL
"CO/N=C(\C(=O)N[C@@H]1C(=O)N2C(C(=O)[O-])=C(/C=C/C[n+]3cccc(-c4csc(N)n4)c3)CS[C@H]12)c1csc(N)n1 [Compound 5, 7β-[2-(2-aminothiazol-4-yl)-2-syn-methoxyiminoacetamido]-3-[(E)-3-[3-(2-aminothiazol-4-yl)pyridinio]-1-propenyl]-3-cephem-4-carboxylate]",0.39,0.39,100,12.5,0.2,0.025,0.39,0.025,0.05,0.2,0.025,0.2,0.1,0.025,0.025,0.025,1.56,0.2,3.13,0.025,MIC (P. aeruginosa NCTC 10490): 1.56 µg/mL; MIC (P. aeruginosa AKR17): > 100 µg/mL; MIC (P. cepacia CN 9113): 50 µg/mL; MIC (A. faecalis ATCC 3750): 0.78 µg/mL; MIC (A. calcoaceticos T59): 12.5 µg/mL
"Nc1nc(/C(=N/O)C(=O)N[C@@H]2C(=O)N3C(C(=O)[O-])=C(/C=C/C[n+]4cccc(-c5csc(N)n5)c4)CS[C@H]23)cs1 [Compound 12, 7β-[2-(2-aminothiazol-4-yl)-2-syn-hydroxyiminoacetamido]-3-[(E)-3-[3-(2-aminothiazol-4-yl)pyridinio]-1-propenyl]-3-cephem-4-carboxylate]",0.1,0.1,25,1.56,0.05,0.05,0.2,0.05,0.2,0.1,0.05,0.1,0.1,0.05,0.025,0.1,12.5,0.39,6.25,0.05,MIC (P. aeruginosa NCTC 10490): 3.13 µg/mL; MIC (P. aeruginosa AKR17): > 100 µg/mL; MIC (P. cepacia CN 9113): > 100 µg/mL; MIC (A. faecalis ATCC 3750): 1.56 µg/mL; MIC (A. calcoaceticos T59): 12.5 µg/mL
